In test [1] the target is T1, Alpha-1A adrenergic receptor (Homo sapiens, UniProt P35348).
T1 sequence (P35348 whole entry): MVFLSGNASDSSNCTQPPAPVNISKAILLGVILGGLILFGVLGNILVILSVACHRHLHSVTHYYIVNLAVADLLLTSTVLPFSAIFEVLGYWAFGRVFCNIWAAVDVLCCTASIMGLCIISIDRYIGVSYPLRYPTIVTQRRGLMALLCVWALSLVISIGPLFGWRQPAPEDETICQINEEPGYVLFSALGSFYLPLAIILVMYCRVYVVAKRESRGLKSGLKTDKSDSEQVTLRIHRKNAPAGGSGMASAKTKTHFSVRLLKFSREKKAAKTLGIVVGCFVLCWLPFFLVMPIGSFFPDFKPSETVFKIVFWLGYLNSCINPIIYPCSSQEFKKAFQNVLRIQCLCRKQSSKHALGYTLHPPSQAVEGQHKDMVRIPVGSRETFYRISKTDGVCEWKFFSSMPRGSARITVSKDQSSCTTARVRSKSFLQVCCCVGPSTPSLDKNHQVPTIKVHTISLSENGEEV
It is filed as functional, cell-based.

For another test, the target named is Mu-type opioid receptor (Homo sapiens, UniProt P35372).
Sequence of Mu-type opioid receptor (P35372 whole entry): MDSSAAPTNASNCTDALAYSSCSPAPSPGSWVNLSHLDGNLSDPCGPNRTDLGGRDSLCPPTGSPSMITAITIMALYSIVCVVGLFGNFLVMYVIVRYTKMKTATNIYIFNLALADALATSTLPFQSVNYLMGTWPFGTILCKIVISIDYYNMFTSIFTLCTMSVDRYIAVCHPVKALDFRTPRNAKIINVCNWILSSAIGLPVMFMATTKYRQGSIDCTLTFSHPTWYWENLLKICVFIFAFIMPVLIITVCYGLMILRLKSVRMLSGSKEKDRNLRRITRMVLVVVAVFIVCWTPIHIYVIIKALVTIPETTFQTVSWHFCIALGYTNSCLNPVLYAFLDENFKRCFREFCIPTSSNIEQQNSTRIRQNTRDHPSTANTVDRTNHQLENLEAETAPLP
For test [2], the target named is T2, 5-hydroxytryptamine receptor 1A (Homo sapiens, UniProt P08908).
T2 sequence (P08908 whole entry): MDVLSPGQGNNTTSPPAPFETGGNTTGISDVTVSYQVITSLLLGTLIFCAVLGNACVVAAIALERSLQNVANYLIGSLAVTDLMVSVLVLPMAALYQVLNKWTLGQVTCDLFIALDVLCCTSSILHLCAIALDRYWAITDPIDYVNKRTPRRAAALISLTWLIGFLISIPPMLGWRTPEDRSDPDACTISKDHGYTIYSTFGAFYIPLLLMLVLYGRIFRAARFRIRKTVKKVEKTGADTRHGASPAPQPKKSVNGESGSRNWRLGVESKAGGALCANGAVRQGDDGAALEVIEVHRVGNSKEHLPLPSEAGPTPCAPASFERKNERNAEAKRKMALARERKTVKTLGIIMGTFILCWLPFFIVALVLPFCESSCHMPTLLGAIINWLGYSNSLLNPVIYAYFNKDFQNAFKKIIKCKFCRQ
The class given is functional, cell-based.

For test [3], the target named is T3, Muscarinic acetylcholine receptor M1 (Homo sapiens, UniProt P11229).
T3 sequence (P11229 whole entry): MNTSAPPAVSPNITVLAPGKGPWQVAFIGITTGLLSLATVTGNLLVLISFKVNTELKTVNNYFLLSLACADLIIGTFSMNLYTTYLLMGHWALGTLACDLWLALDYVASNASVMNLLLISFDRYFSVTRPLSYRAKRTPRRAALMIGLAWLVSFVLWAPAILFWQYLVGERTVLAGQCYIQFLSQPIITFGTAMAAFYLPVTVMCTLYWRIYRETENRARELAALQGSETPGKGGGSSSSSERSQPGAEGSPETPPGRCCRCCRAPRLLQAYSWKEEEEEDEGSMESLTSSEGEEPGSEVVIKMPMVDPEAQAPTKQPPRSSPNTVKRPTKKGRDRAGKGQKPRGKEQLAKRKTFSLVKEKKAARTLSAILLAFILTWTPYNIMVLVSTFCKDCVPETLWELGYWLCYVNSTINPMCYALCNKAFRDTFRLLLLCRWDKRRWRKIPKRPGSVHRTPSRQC
It is filed as functional.

The target of another test is Histamine H3 receptor (Homo sapiens, UniProt Q9Y5N1).
Sequence of Histamine H3 receptor (Q9Y5N1 whole entry): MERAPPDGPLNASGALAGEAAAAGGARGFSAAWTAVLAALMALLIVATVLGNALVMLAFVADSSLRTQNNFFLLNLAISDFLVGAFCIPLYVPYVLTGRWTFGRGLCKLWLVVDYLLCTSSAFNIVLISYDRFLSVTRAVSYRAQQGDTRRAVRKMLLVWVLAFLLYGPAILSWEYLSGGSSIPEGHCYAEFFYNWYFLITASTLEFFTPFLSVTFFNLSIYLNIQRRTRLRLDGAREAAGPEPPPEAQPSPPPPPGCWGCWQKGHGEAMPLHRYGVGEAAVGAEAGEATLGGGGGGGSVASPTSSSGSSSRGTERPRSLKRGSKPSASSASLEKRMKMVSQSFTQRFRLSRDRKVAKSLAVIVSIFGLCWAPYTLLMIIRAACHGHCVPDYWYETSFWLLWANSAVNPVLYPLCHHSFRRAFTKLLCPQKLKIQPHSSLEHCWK
In test [4] the target is Beta-2 adrenergic receptor (Homo sapiens, UniProt P07550). The class given is functional, cell-based.
Sequence of Beta-2 adrenergic receptor (P07550 whole entry): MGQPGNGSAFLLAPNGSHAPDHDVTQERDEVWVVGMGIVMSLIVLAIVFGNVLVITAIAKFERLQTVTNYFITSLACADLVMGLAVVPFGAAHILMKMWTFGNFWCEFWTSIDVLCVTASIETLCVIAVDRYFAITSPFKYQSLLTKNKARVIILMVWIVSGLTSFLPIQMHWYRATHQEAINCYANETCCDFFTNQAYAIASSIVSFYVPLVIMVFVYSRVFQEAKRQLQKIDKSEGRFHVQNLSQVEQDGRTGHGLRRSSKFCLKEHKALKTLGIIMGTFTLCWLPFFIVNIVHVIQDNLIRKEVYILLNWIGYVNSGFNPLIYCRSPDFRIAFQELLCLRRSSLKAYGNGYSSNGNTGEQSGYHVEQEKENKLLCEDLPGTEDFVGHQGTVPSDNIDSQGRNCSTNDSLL
The target in test [5] is T1, Alpha-1A adrenergic receptor. The class given is functional, cell-based. The source holds these as a separate data set.
Test [6] addresses T4, Amine oxidase [flavin-containing] A (Homo sapiens, UniProt P21397).
T4 sequence (P21397 whole entry): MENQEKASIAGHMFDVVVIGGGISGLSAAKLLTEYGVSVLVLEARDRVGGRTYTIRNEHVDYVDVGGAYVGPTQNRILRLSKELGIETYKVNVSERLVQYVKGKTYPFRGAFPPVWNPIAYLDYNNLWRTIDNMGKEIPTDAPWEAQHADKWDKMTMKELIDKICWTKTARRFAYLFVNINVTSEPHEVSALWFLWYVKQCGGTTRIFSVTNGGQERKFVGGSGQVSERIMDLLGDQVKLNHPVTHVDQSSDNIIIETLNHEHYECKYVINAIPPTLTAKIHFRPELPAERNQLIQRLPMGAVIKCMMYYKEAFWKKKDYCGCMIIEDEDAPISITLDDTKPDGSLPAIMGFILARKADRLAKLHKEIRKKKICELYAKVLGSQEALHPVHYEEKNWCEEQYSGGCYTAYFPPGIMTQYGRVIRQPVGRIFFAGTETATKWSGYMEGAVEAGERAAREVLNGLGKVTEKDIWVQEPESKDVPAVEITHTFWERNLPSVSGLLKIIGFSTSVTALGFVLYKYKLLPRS
The class given is functional.

Another test addresses Acetylcholinesterase (Homo sapiens, UniProt P22303). It is filed as functional.
Test [7] addresses T1, Alpha-1A adrenergic receptor. The class given is functional, cell-based. This is another data set of the same source.
Test [8] addresses Prostaglandin G/H synthase 1 (Homo sapiens, UniProt P23219). It is filed as functional.
In test [9] the target is 5-hydroxytryptamine receptor 2A (Homo sapiens, UniProt P28223). The class given is functional, cell-based.
Sequence of 5-hydroxytryptamine receptor 2A (P28223 whole entry): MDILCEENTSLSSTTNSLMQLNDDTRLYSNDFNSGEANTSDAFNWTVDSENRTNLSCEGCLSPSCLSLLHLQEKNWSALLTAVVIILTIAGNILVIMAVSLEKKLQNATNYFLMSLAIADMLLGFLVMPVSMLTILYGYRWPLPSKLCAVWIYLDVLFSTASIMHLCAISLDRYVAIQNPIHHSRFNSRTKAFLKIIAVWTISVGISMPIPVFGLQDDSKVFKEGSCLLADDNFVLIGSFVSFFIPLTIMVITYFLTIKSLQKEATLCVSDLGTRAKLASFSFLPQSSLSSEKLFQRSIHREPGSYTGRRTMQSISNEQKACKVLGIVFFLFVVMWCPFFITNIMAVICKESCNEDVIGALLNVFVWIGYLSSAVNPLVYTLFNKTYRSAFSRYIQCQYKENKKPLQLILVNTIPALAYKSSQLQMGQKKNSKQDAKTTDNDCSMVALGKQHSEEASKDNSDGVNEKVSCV
The target in another test is T5, Thromboxane A2 receptor (Homo sapiens, UniProt P21731).
T5 sequence (P21731 whole entry): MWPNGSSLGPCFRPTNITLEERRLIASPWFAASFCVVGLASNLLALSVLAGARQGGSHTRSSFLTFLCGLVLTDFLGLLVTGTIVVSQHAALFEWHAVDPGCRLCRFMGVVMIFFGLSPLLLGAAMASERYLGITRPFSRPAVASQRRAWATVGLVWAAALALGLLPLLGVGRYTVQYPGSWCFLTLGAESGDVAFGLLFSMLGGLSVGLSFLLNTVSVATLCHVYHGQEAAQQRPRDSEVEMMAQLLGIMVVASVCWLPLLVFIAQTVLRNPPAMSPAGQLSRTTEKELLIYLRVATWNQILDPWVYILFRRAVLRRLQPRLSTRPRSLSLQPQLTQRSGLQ

The target in test [10] is Gamma-aminobutyric acid receptor subunit alpha-1 (Rattus norvegicus, UniProt P62813).
Sequence of Gamma-aminobutyric acid receptor subunit alpha-1 (P62813 whole entry): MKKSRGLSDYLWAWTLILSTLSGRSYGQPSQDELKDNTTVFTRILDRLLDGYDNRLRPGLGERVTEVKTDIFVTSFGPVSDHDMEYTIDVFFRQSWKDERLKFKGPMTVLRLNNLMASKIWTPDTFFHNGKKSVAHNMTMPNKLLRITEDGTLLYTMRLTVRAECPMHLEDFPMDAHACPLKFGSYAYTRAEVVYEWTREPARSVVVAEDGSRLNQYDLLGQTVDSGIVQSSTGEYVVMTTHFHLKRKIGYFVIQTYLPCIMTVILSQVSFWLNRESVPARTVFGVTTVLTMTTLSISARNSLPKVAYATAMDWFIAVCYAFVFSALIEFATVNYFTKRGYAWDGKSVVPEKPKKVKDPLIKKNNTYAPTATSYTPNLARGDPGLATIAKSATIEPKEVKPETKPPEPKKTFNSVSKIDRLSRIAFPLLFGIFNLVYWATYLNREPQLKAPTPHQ
The target in another test is Histamine H2 receptor (Homo sapiens, UniProt P25021). It is filed as functional, cell-based.
Sequence of Histamine H2 receptor (P25021 whole entry): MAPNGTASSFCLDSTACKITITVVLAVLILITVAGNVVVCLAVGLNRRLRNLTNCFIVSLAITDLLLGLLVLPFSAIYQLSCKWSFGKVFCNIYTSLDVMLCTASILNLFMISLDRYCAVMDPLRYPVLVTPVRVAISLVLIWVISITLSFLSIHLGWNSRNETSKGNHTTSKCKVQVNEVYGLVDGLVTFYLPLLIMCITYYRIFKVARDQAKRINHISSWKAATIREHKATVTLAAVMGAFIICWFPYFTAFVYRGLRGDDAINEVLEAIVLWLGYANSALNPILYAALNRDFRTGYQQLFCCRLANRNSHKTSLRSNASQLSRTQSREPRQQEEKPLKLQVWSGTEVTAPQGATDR

The values that follow come from ChEMBL document CHEMBL5291721, “A preclinical secondary pharmacology resource illuminates target-adverse drug reaction associations of marketed drugs” (Nat Commun, 2023).

By AC50 is commonly meant the concentration giving half of the maximal activity seen.
Note: assay procedure not described here.

Sequence of Prostaglandin G/H synthase 1 (P23219 whole entry): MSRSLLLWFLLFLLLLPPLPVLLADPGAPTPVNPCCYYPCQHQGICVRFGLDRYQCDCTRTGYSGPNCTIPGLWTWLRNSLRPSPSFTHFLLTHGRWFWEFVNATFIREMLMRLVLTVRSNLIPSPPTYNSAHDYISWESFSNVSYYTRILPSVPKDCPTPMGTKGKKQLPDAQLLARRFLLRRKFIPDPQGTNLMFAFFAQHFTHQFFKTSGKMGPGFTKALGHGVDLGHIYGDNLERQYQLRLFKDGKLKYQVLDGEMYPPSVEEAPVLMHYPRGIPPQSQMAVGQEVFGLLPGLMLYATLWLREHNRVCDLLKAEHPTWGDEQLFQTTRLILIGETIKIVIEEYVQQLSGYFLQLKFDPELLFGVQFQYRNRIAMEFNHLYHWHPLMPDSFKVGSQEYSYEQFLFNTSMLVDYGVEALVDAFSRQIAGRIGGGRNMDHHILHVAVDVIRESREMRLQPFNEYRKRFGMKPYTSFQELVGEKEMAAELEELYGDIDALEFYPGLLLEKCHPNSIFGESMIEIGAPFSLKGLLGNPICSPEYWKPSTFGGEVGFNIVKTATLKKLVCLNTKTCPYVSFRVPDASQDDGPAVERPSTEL
Sequence of Acetylcholinesterase (P22303 whole entry): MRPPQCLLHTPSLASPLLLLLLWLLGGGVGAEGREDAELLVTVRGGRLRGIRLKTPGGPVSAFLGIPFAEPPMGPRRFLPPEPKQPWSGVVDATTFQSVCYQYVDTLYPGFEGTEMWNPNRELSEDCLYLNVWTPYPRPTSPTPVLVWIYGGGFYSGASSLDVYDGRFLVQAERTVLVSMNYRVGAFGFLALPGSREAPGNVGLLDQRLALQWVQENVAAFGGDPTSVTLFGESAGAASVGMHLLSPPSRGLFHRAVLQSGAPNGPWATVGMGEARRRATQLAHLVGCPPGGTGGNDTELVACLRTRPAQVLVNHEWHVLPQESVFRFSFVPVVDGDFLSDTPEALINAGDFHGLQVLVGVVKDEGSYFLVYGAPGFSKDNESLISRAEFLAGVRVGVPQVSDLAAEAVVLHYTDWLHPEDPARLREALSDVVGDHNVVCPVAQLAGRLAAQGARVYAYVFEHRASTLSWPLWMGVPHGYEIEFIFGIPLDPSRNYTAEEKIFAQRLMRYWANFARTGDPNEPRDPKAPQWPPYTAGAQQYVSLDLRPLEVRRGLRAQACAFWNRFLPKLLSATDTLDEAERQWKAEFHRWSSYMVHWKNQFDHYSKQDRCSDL

Regarding `CN(C)CCC=C1c2ccccc2C(C)(C)c2ccccc21`, the AC50 in test [1] is > 30 µM; at Mu-type opioid receptor, 24 µM; in [2] it was > 30 µM; in [3], 0.129 µM; on Histamine H3 receptor, 25 µM; in test [4] it was > 30 µM.
Consider `CC(=O)Nc1ccc(O)cc1` [ACETAMINOPHEN], for which the concentration at half-maximal activity (AC50) in test [5] was > 30 µM; in [1], > 30 µM; at Mu-type opioid receptor, > 30 µM; in test [6], > 10 µM; at Acetylcholinesterase it was > 30 µM; in test [2], > 30 µM. Moreover, the AC50 (in test [7]; on Histamine H3 receptor; in test [8]; in [4]) was > 30 µM throughout.
Consider `CNC(=O)c1ccccc1Sc1ccc2c(/C=C/c3ccccn3)n[nH]c2c1` [AXITINIB], for which the half-maximal activity concentration (AC50) (in [9]; in test [1]; on Mu-type opioid receptor; in test [2]; in test [3]; on Histamine H3 receptor) was > 30 µM each time. Also, the results for the AC50 (on Thromboxane A2 receptor; in test [4]) were 8.66 µM and > 30 µM, respectively.
Turning to `NCC(CC(=O)O)c1ccc(Cl)cc1` (stereo not drawn) [BACLOFEN], the AC50 (in test [5]; in [1]; at Mu-type opioid receptor; in [6]; at Acetylcholinesterase; in [2]) was > 30 µM in each case. Moreover, the AC50 in test [10] is > 10 µM; in [7], > 30 µM; on Histamine H3 receptor, > 30 µM; on Thromboxane A2 receptor, > 30 µM; in test [8], > 30 µM; in test [4], > 30 µM. In addition, the half-maximal activity concentration (AC50) on Histamine H2 receptor was > 10 µM.
With `CC(C)C[C@H]1C(=O)N2CCC[C@H]2[C@]2(O)O[C@](NC(=O)[C@@H]3C=C4c5cccc6[nH]c(Br)c(c56)C[C@H]4N(C)C3)(C(C)C)C(=O)N12` [BROMOCRIPTINE], the AC50 is 0.844 µM in test [1]; 14 µM at Mu-type opioid receptor; > 30 µM in test [6]; 1.78 µM on Acetylcholinesterase; 0.17 µM in test [2]; > 10 µM in [10]. The AC50 in [7] was 1.07 µM; on Histamine H3 receptor it was > 30 µM; on Thromboxane A2 receptor, > 30 µM; in test [8] it was 4.61 µM; in [4], > 30 µM; at Histamine H2 receptor, 2.13 µM.
Consider `O=C1Nc2ccc(Cl)cc2[C@@](C#CC2CC2)(C(F)(F)F)O1` [EFAVIRENZ], for which the half-maximal activity concentration (AC50) is > 30 µM in test [1]; > 30 µM on Mu-type opioid receptor; > 10 µM in [2]; > 10 µM in test [10]; > 30 µM in test [3]; > 30 µM on Histamine H3 receptor. Moreover, the concentration at half-maximal activity (AC50) is > 30 µM on Thromboxane A2 receptor, > 30 µM in test [4] and > 10 µM on Histamine H2 receptor.
With `C[C@H]1CNCCc2ccc(Cl)cc21` [LORCASERIN], the AC50 in test [1] is > 30 µM; on Mu-type opioid receptor, > 30 µM; in test [2] it was 4.4 µM; in test [3], > 30 µM; at Histamine H3 receptor it was > 30 µM; in [4], > 30 µM.
As for `CNC1Cc2ccccc2N(C)c2ccccc21` (stereo not drawn) [METAPRAMINE], the half-maximal activity concentration (AC50) was 14 µM in test [9]; > 30 µM in [1]; > 30 µM at Mu-type opioid receptor; > 30 µM in test [2]; > 30 µM in test [3]; > 30 µM at Histamine H3 receptor. Also, in test [4], the half-maximal activity concentration (AC50) is > 30 µM.
In the case of `c1cnc(N2CCN(Cc3ccc4c(c3)OCO4)CC2)nc1` [PIRIBEDIL], the AC50 in test [9] is > 30 µM; in test [1], > 30 µM; on Mu-type opioid receptor, > 30 µM; in test [2], 20 µM; in [3], > 30 µM; on Histamine H3 receptor, > 30 µM. In addition, in test [4], the AC50 is > 30 µM.
For `CS(=O)(=O)c1ccc(C2=C(c3ccccc3)C(=O)OC2)cc1` [ROFECOXIB], the AC50 was > 30 µM in [5]; > 30 µM in test [1]; > 10 µM at Mu-type opioid receptor; > 30 µM in test [6]; > 30 µM at Acetylcholinesterase; 35 µM in test [2]. Also, the AC50 in test [10] was > 10 µM; in test [7], > 30 µM; at Histamine H3 receptor, > 10 µM; at Thromboxane A2 receptor it was > 30 µM; in test [4], > 30 µM; at Histamine H2 receptor, > 30 µM.
In the case of `CO[C@H]1C[C@@H]2CC[C@@H](C)[C@@](O)(O2)C(=O)C(=O)N2CCCC[C@H]2C(=O)O[C@H]([C@H](C)C[C@@H]2CC[C@@H](O)[C@H](OC)C2)CC(=O)[C@H](C)/C=C(\C)[C@@H](O)[C@@H](OC)C(=O)[C@H](C)C[C@H](C)/C=C/C=C/C=C/1C` [SIROLIMUS], the AC50 is > 30 µM in [5]; > 30 µM in test [1]; > 10 µM at Mu-type opioid receptor; > 30 µM in [6]; > 30 µM at Acetylcholinesterase; > 10 µM in test [2]. For the same compound, the AC50 in test [10] is > 10 µM; in test [7], > 30 µM; on Histamine H3 receptor, > 10 µM; on Thromboxane A2 receptor it was > 30 µM; in test [8] it was 23.3 µM; in test [4] it was > 30 µM. Further, the half-maximal activity concentration (AC50) on Histamine H2 receptor is > 10 µM.
Regarding `Cn1nnc2c(C(N)=O)ncn2c1=O` [TEMOZOLOMIDE], the AC50 is > 30 µM in test [9]; > 30 µM in test [1]; > 30 µM at Mu-type opioid receptor; > 30 µM in test [2]; > 10 µM in test [10]; > 30 µM in [3]. For the same compound, the AC50 at Histamine H3 receptor is > 30 µM; at Thromboxane A2 receptor, > 30 µM; in test [4], > 30 µM; on Histamine H2 receptor, > 10 µM.
